Experimental data published in PubChem BioAssay AID1611 (NINDS Approved Drug Screening Program, 2009).

Tested on: human cells, HSE-luciferase heat shock reporter
Assay: inducers of human heat shock response, cell-based, HSE luciferase (AID 1611)
Details: measured here: HSE reporter induction potency

Q: With `CC(=O)O[C@]1(C(C)=O)CCC2C3C=C(Cl)C4=CC(=O)[C@@H]5C[C@@H]5[C@]4(C)C3CC[C@@]21C` (stereo partly specified) as the compound, how does the EC50 read?
A: The EC50 was 4.7 µM.

Q: How did the EC50 turn out when `Cc1ccc(C(=O)c2ccc(CC(=O)O)n2C)cc1` was run?
A: The EC50 was 5 µM.

Q: `CC[C@H]1OC(=O)[C@H](C)[C@@H](O[C@H]2C[C@@](C)(OC)[C@@H](O)[C@H](C)O2)[C@H](C)[C@@H](O[C@@H]2O[C@H](C)C[C@H](N(C)C)[C@H]2O)[C@](C)(O)C[C@@H](C)CN(C)[C@H](C)[C@@H](O)[C@]1(C)O` was tested. Which EC50 did it give?
A: The EC50 was 4.6 µM.

Q: How did the EC50 turn out when `CC(COc1ccccc1)NC(C)[C@H](O)c1ccc(O)cc1` (stereo partly specified) was run?
A: The EC50 was 4.3 µM.

Q: `C[C@H]1O[C@@H](O[C@H]2[C@@H](O)C[C@H](O[C@H]3[C@@H](O)C[C@H](O[C@H]4CC[C@]5(C)C6CC[C@]7(C)[C@@H](C8=CC(=O)OC8)CC[C@]7(O)C6CC[C@@H]5C4)O[C@@H]3C)O[C@@H]2C)C[C@H](O)[C@@H]1O` (stereo partly specified) was tested. Which EC50 did it give?
A: Its EC50 is 4 µM.

Q: `O=C1c2ccccc2C(=O)C1c1ccccc1` was tested. Which EC50 did it give?
A: The EC50 was 4.6 µM.
